Laboratory results reported in US20050229260A1, “Compound screens relating to insulin deficiency or insulin resistance” (DevGen NV, priority 2000, published 2005).

What was measured:
protein phosphatase 2A = protein phosphatase 2A inhibitor; cited from earlier work
PTP = PTP inhibitor; cited from earlier work
[1] = system: C. elegans strain DR1564: daf-2(m41)
Experimental: All screening was done at 20 μM compound concentration in quadruplicates, except 2000 compounds of Diverset in triplicates. Confirmation was done at 4 concentrations. Questionable dose responses were repeated, if necessary at lower concentrations and/or 2 fold dilution steps. All worms that bypassed dauer stage, L4s and adults, were counted under a Leica MZ12 dissection scope and together referred to as number of adults per well. […] Data were transferred to Excel files and average and variance of the 8 controls of each plate calculated and plotted.
The number of wells was plotted against the number of adults per well and a negative binomial distribution fitted by maximum likelihood. […]
Then the number of adults per well where the cumulative negative binomial distribution was closest to 99% was determined and referred to as 1% cut-off. […]
The plates were then screened through quickly to find wells with a high number adults, which were counted and if found to reach the cut-off value the position on the lid was circled and the exact value written in the circle. […] Finally the transparent lids of the 4 replicate plates were stacked on top of each other and by looking through them it was determined whether 2 or more lids were circled in any position. […]

For CC1(C(=O)O)C2CCC(O2)C1(C)C(=O)O (stereo not drawn) [Cantharidic acid], the IC50 (protein phosphatase 2A) is listed as 0.053 µM.

In the case of CN(N=O)c1cc(O)ccc1O [Dephostatin], the IC50 (PTP) is given as 7.7 µM.

For COC[C@H]1OC(=O)c2coc3c2[C@@]1(C)C1=C(C3=O)[C@@H]2CCC(=O)[C@@]2(C)C[C@H]1OC(C)=O [Wortmannin], the “active in the assay” value [1] was “active”.
